# Laboratory results taken from patent publication US20250065090A1, “DEVICE AND METHOD FOR DELIVERY OF A HEARING DRUG FORMULATION” (Corti Therapeutics Pte. Ltd., priority 2023, published 2025).
# Like-named read-outs stand apart in the source and are kept apart here.
# Assays:
# [1] = tested on: patients receiving cisplatin; details: cited from earlier work
# [2] = tested on: cisplatin induced hearing loss; details: systemic administration, humans; cited from earlier work
# [3] = Calculated osmolarity of STS formulation; type: physicochemical; details: aqueous solution of sodium thiosulfate 0.1M to 0.5M
# [4] = tested on: cisplatin induced hearing loss; details: intratympanic administration, multiple clinical trials; cited from earlier work
# [5] = tested on: cisplatin hearing loss model
# From the text: A solution of freshly prepared sodium thiosulfate solution was loaded in a Hamilton syringe with 26 G needle.
# [6] = tested on: cisplatin induced hearing loss; details: intratympanic injection, animal studies; cited from earlier work
# [7] = after STS local administration
# Description: The time-concentration data was used for calculations. The area under the concentration-time curve (AUC) was determined by the trapezoidal rule. Terminal elimination half-lives of sodium thiosulfate (STS) in perilymph and plasma were determined by use of WIN NONLIN version 2.0 SCI.
# 30 guinea pigs (250-350 g) without sign of otitis media stayed for ˜3 days acclimation, and ready for PK study. Two anesthesia methods (Zoletil+Xylazine with head up 30 min) and Isoflurane (animal wake up immediately post-injection)] were used. 15 animals for each group.
# The subjection guinea pig was anesthetized with zolazepam hydrochloride (Zoletil) and Xylazine or isoflurane inhalation. A solution of freshly prepared sodium thiosulfate solution was loaded in a Hamilton syringe with 26 G needle. The needle was carefully inserted into the left middle ear cavity via the tympanic membrane aiming to cochlear round window. ˜50 μL of dosing solution was injected. The animal was positioned head up for ˜30 min prior to waking up in Zoletil and Xylazine or wake up immediately in isoflurane inhalation.
# In C-subgroup of each group, animal blood was systemically drawn (˜100 uL) via bilateral saphenous vein at the multiple time points. Put the collection blood in heparinized tube and stay ˜20 min. ˜50 μL of plasma was collected in microtube and put in −80° C. for future analysis.
# STS concentrations were quantitatively analyzed by HPLC using an LC-20AT with a SPD-M20A UV-Vis detector (Shimadzu, Kyoto, Japan) and a LiChrospher RP-select B LiChroCART 250-4 […] column (EMD Millipore Corp, Darmstadt, Germany). All samples were prepared using a method similar to that described by Togawa et al. (1992).
Structure (SMILES),"cure rate ([1]; cisplatin based chemotherapy, testicular cancer) [%]","patients developing hearing loss ([1]; human, in vivo)",effect on cisplatin induced hearing loss [2],calculated osmolarity [3] [mOsm/L],hearing protection [4],"hearing protection ([5]; 0.2M concentration, simple aqueous formulation without gelling agent, guinea pig cisplatin hearing loss model)","protection of the sodium thiosulfate treated ears (ABR) ([5]; all groups (2.5%, 5% and 10% sodium thiosulfate), TT or IT injection ~30 min before cisplatin 10 mg/kg iv, ABR 7 days after infusion, treated vs untreated contralateral ear)",effect on cisplatin induced hearing loss [6],Tmax of systemic thiosulfate [7],systemic thiosulfate concentration [7],time until systemic thiosulfate concentration recovered to normal [7]
"N.N.[Cl][Pt][Cl] [cisplatin, Cisplatin]",> 90,60%-80%,,,,,,,,,
O=S([O-])([O-])=S.[Na+].[Na+] [sodium thiosulfate],,,mitigate cisplatin induced hearing loss,< 1500,no meaningful hearing protection,full hearing protection,nearly completed protection,prevented the cisplatin induced hearing loss,approximately 30 min,increased,around 1 hour
